The subject of assay [1] is Enterococcus faecalis (OG1RF). In words: Bacterial removal from root canals of inoculated extracted human mandibular molars, instrumentation/irrigation, qPCR. The assay is classed as cell-based. The note with it: pre- vs post-instrumentation/irrigation, human mandibular molars incubated 14 days anaerobic. The method, then:
(§1) Forty human mandibular molars were accessed, sterilized, inoculated with Enterococcus faecalis (OG1RF) and Fusobacterium nucleatum (ATCC10953), and incubated for 14 days under anaerobic conditions. Teeth were divided into 3 groups (n=10): 1) 6.15% NaOCl, 2) 8.25% NaOCl, 3) Cysteamine. Controls (n=5): negative without inoculation and positive without instrumentation/irrigation. Mesiobuccal and mesiolingual canals were instrumented using Vortex Blue to 30/.04 and the corresponding irrigant, followed by neutralization with EDTA and saline. Samples were collected pre- and post-instrumentation/irrigation. Total DNA was extracted and quantitative real-time PCR was performed. Data were analyzed using one-way ANOVA with Bonferroni's multiple comparisons (p<0.05). See FIG. 1 for a schematic representation of the methods.
A general note: In qPCR the cycle at which signal appears reflects the starting amount.

The test system of assay [2] is Fusobacterium nucleatum (ATCC10953). The description is as above. The conditions noted are these: pre- vs post-instrumentation/irrigation, human mandibular molars incubated 14 days anaerobic. The assay is classed as cell-based. The method, then:
as §1

As for `NCCS` [Cysteamine], the “percent reduction in Enterococcus faecalis” value in assay [1] (Cysteamine irrigant) turned out to be 60%. Besides, the “percent reduction in Fusobacterium nucleatum” value in assay [2] (Cysteamine irrigant) is 68.5%.
Regarding `OCl` [NaOCl, sodium hypochlorite], the “percent reduction in Enterococcus faecalis” value in assay [1] (6.15% NaOCl irrigant) was 49%; in assay [1] (8.25% NaOCl irrigant), 54%. Besides, the “percent reduction in Fusobacterium nucleatum” value in assay [2] (6.15% NaOCl irrigant) turned out to be 59.9%; in assay [2] (8.25% NaOCl irrigant), 63.4%.

(Values after US20200188237A1, “ENDODONTIC FORMULATIONS CONTAINING CYSTEAMINE AND CYSTEAMINE DERIVATIVES AND USES THEREOF” (University of Florida Research Foundation, Inc., priority 2017, published 2020).)
